What all share (format): cell-based
Assay [1] concerns Human osteosarcoma U20S cells. The assay is described as follows: Assay to measure lysosome and autolysosome formation (acidic vesicle formation, LysoView/LysoTracker staining). The following applies: for increase in acidic vesicle formation: U20S cells, relative to DMSO-treated control (10 μM); for activation at 0.8 µM: Homo sapiens, U2OS cells, concentration of 0.8 μM, read-out: Activity (percentage increase in acidic vesicle formation over the DMSO-treated control), Table 2. A digest of the protocol: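 U2OS cells treated with compounds in DMSO for 24 h, then stained 45 min at 37 °C with 1× LysoView 633 or 50 nM LysoTracker Deep Red, with Hoechst nuclear counterstain. Live-cell fluorescence imaging at 37 °C; acidic vesicle formation judged against DMSO-treated control.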

Another assay has as its system SH-SY5Y cells. The assay is described as follows: Acidic vesicle formation in SH-SY5Y cells (LysoTracker Deep Red). The following applies: 24 hours. As to the method: This is evidence for significant stimulation of autophagy by this compound under these conditions. A brief description of the procedure is outlined here: • Day 1: Cells were seeded at 15K cells/well in the middle 60 wells of 6×96 well Cellvis imaging plates • Day 2: Media was replaced with 90 μl of DMEM/F12 (+10% FBS/1% P/S) containing NucBlue Live and the cells were treated with 10 μl of compound (10× concentrated) in triplicate for 24 hours. • Day3: Treatment was removed and cells were incubated for 30 minutes with LysoTracker™ Deep Red dye. Cells were washed twice with media and immediately imaged on EVOS M7000 at x20 (6 images per well, 30 minutes imaging time/plate). Images were analysed using Celleste Image analysis software.

Assay [2] has as its system U2OS cell line stabling expressing RFP-eGFP-hLC3b. Description: Tandem reporter assay (autophagic flux, RFP-only puncta). The following applies: Homo sapiens, RFP-only puncta as percentage of DMSO-treated control, 24 hours; for activity at 1 µM: read-out: Autolysosome % DMSO activity (compound concentration of 1 μM); for activity at 10 µM: read-out: Autolysosome % DMSO activity (compound concentration of 10 μM). The procedure:
Selected compounds of this invention were also assessed for their ability to stimulate autophagy using a U20S cell line stabling expressing RFP-eGFP-hLC3b (a tandem reporter cell line). During the process of autophagy, the cargo to be degraded is first enveloped by organelles called autophagosomes. These autophagosomes then fuse with lysosomes, causing them to become acidified and their digestive enzymes to become activated. The term “autophagic flux” is used to represent the dynamic process of autophagy: autophagic flux refers to the whole process of autophagy, including autophagosome formation, maturation, fusion with lysosomes, subsequent breakdown and the release of macromolecules back into the cytosol (Zhang X J, Chen S, Huang K X, Le W D. Why should autophagic flux be assessed? Acta Pharmacol Sin. 2013 May; 34(5): 595-9. doi: 10.1038/aps.2012.184. Epub 2013 Mar. 11). Compounds that stimulate autophagic flux stimulate the dynamic process of autophagy (the whole process of autophagy).
LC3b is a protein found in the membrane of autophagosomes which has been used to generate genetic reporters of autophagy in cells. In these systems a tandem fusion of LC3b is engineered with two fluorescent proteins of different wavelengths: one which is acid sensitive (for example eGFP, which fluoresces green) and the other which is acid insensitive (for example RFP, which fluoresces red). Cells expressing RFP-eGFP-hLC3b can be examined using fluorescent microscopy: the autophagosomes present will fluoresce in both channels (either yellow in an overlay of both channels or puncta that are present in both the individual red and green channels) but the autolysosomes present will fluoresce in the RFP (red) channel only. Using a fluorescent microscope, the number of autophagosomes and autolysosomes can be counted, allowing for the monitoring of both the induction of autophagy (total puncta count) and the rate of autophagic flux (ratio of red-only to red-and-green puncta). The influence of small molecules on autophagy induction and flux can be assessed using this system by comparison to a non-treated control.
Representative Procedure: Human osteosarcoma U2OS cells stably expressing RFP-eGFP-hLC3b were seeded (10,000 cells/well) into a 96-well glass-bottom plate (Cell Carrier Ultra, Perkin Elmer) in DMEM Glutamax media (Gibco) supplemented with 10% Fetal Bovine Serum (FBS) and antibiotics (100 u/ml penicillin, 100 μg/ml streptomycin, Invitrogen), then incubated overnight in a humified atmosphere at 37° C. and 5% CO2. The cells were then treated with the compounds of interest, dissolved in DMSO, in a duplicated 5- or 10-point dose-response. 8 wells were treated with an equivalent volume of DMSO, 4 with 0.3 μM torin-1 as a positive control (MCE) and 4 wells with 0.4 μM torin-1 plus 0.2 μM bafilomycin (MCE) as a control for flux inhibition. The cells were returned to the incubator and the treatment continued for 24 hours. After treatment, the media was aspirated off and the cells fixed with a solution of 4% formaldehyde+1% glutaraldehyde (Sigma) in dPBS (plus magnesium and calcium, Gibco).
Fixation was allowed to proceed for 15 minutes at room temperature then the fixative solution discarded and replaced with PBS (Gibco) plus Hoescht 33342 ([…], Sigma). After 30 minutes the plates were imaged on an Opera Phenix confocal microscope (Perkin-Elmer) using a 40× water objective, collecting using DAPI, mCherry and GFP channels. Cells were detected based upon the staining of their nuclei with DAPI using the Harmony image analysis software (Perkin-Elmer) and the number of autophagosomes (GFP and RFP puncta) and autolysosomes (RFP only puncta) per cell were counted using the spot picking function within the software.
Background: Reporter assays use an easily measured gene product as a stand-in for the process of interest.

Molecules are shown by their SMILES.

For `CC(C)N(C(=O)c1ccc(-c2cnn(-c3ccc(F)cc3)c2)[nH]1)C1CCNCC1` [Compound 310, 5-[1-(4-fluorophenyl)-1H-pyrazol-4-yl]-N-(piperidin-4-yl)-N-(propan-2-yl)-1H-pyrrole-2-carboxamide], the “increase in acidic vesicle formation” value in assay [1] is on record as “only a slight increase”. In the assay on SH-SY5Y cells, the “Fold change at compound concentration of 0.8 μM (acidic vesicle formation relative to DMSO-treated control)” value is 1.9 and the “Fold change at compound concentration of 10 μM (acidic vesicle formation relative to DMSO-treated control)” value was found to be 4.5.
Regarding `CC(C)N(C(=O)c1csc(-c2cnn(-c3ccccc3)c2)n1)[C@H]1CCNC1` [Compound 311, 2-(1-phenyl-1H-pyrazol-4-yl)-N-(propan-2-yl)-N-[(3S)-pyrrolidin-3-yl]-1,3-thiazole-4-carboxamide], the activation at 0.8 µM in assay [1] lay within 50 to 100%. Moreover, in the assay with SH-SY5Y cells, the “Fold change at compound concentration of 0.8 μM (acidic vesicle formation relative to DMSO-treated control)” value worked out at 2.3 and the “Fold change at compound concentration of 10 μM (acidic vesicle formation relative to DMSO-treated control)” value turned out to be 3.5.
As for `CC(C)N(C(=O)c1ccc(-c2cnn(-c3ccccc3)c2)[nH]1)[C@@H]1CCNC1` [Compound 313, 5-(1-phenyl-1H-pyrazol-4-yl)-N-(propan-2-yl)-N-[(3R)-pyrrolidin-3-yl]-1H-pyrrole-2-carboxamide], the activation at 0.8 µM in assay [1] was above 100%. In addition, in the assay on SH-SY5Y cells, the “Fold change at compound concentration of 0.8 μM (acidic vesicle formation relative to DMSO-treated control)” value was 2.0 and the “Fold change at compound concentration of 10 μM (acidic vesicle formation relative to DMSO-treated control)” value stood at 13.2.
As for `CC(C)N(C(=O)c1ccc(-c2cnn(-c3ccccc3)c2)[nH]1)[C@H]1CCNC1` [Compound 314, 5-(1-phenyl-1H-pyrazol-4-yl)-N-(propan-2-yl)-N-[(3S)-pyrrolidin-3-yl]-1H-pyrrole-2-carboxamide], the activation at 0.8 µM in assay [1] is above 100%. In the assay on SH-SY5Y cells, the “Fold change at compound concentration of 0.8 μM (acidic vesicle formation relative to DMSO-treated control)” value was determined as 2.0 and the “Fold change at compound concentration of 10 μM (acidic vesicle formation relative to DMSO-treated control)” value is reported as 14.3.
Take `CC(C)N(C(=O)c1csc(-c2cnn(-c3ccccc3)c2)n1)C1CC2(CNC2)C1` [Compound 319, N-{2-azaspiro[3.3]heptan-6-yl}-2-(1-phenyl-1H-pyrazol-4-yl)-N-(propan-2-yl)-1,3-thiazole-4-carboxamide]: the activation at 0.8 µM in assay [1] was 30 to 50%. Moreover, in the assay on SH-SY5Y cells, the “Fold change at compound concentration of 0.8 μM (acidic vesicle formation relative to DMSO-treated control)” value worked out at 2.4 and the “Fold change at compound concentration of 10 μM (acidic vesicle formation relative to DMSO-treated control)” value is reported as 2.7.
Consider `CC(C)N(C(=O)c1csc(-c2cnn(-c3ccccc3)c2)n1)C1C[C@H]2CNC[C@H]2C1` (stereo partly drawn) [Compound 320, N-[(3aR,6aS)-octahydrocyclopenta[c]pyrrol-5-yl]-2-(1-phenyl-1H-pyrazol-4-yl)-N-(propan-2-yl)-1,3-thiazole-4-carboxamide], for which the “increase in acidic vesicle formation” value in assay [1] was “only a slight increase”. In the assay on SH-SY5Y cells, the “Fold change at compound concentration of 0.8 μM (acidic vesicle formation relative to DMSO-treated control)” value is 1.9 and the “Fold change at compound concentration of 10 μM (acidic vesicle formation relative to DMSO-treated control)” value is recorded as 3.3.
On to `CC(C)N(C(=O)c1csc(-c2cnn(C(C)C)c2)n1)[C@H]1CCNC1` [Compound 390, N-(propan-2-yl)-2-[1-(propan-2-yl)-1H-pyrazol-4-yl]-N-[(3S)-pyrrolidin-3-yl]-1,3-thiazole-4-carboxamide], for which, in assay [2], the activity at 1 µM amounted to 106% and the activity at 10 µM was determined as 116%.
Turning to `CC(C)N(C(=O)c1csc(-c2cnn(C(C)(C)C)c2)n1)[C@H]1CCNC1` [Compound 391, 2-(1-tert-butyl-1H-pyrazol-4-yl)-N-(propan-2-yl)-N-[(3S)-pyrrolidin-3-yl]-1,3-thiazole-4-carboxamide], in assay [2], the activity at 1 µM amounted to 109% and the activity at 10 µM amounted to 161%.
Regarding `CC(C)N(C(=O)c1csc(-c2cnn(C)c2)n1)C1CCNCC1` [Compound 392, 2-(1-methyl-1H-pyrazol-4-yl)-N-(piperidin-4-yl)-N-(propan-2-yl)-1,3-thiazole-4-carboxamide], in assay [2], the activity at 1 µM is 97% and the activity at 10 µM came to 109%.
As for `CC(C)N(C(=O)c1csc(-c2cnn(C(C)C)c2)n1)C1CCNCC1` [Compound 393, N-(piperidin-4-yl)-N-(propan-2-yl)-2-[1-(propan-2-yl)-1H-pyrazol-4-yl]-1,3-thiazole-4-carboxamide], in assay [2], the activity at 1 µM is 106% and the activity at 10 µM was 110%.
Turning to `CC(C)N(C(=O)c1csc(-c2cnn(C(C)(C)C)c2)n1)C1CCNCC1` [Compound 394, 2-(1-tert-butyl-1H-pyrazol-4-yl)-N-(piperidin-4-yl)-N-(propan-2-yl)-1,3-thiazole-4-carboxamide], in assay [2], the activity at 1 µM was determined as 114% and the activity at 10 µM turned out to be 176%.
For the compound `CC(C)N(C(=O)c1csc(-c2cnn(-c3ccccc3Cl)c2)n1)[C@H]1CCNC1` [Compound 395, 2-[1-(2-chlorophenyl)-1H-pyrazol-4-yl]-N-(propan-2-yl)-N-[(3S)-pyrrolidin-3-yl]-1,3-thiazole-4-carboxamide], in assay [2], the activity at 1 µM is 137% and the activity at 10 µM was found to be 191%.
Turning to `CC(C)N(C(=O)c1csc(-c2cnn(-c3ccccc3OC(F)(F)F)c2)n1)[C@H]1CCNC1` [Compound 396, N-(propan-2-yl)-N-[(3S)-pyrrolidin-3-yl]-2-{1-[2-(trifluoromethoxy)phenyl]-1H-pyrazol-4-yl}-1,3-thiazole-4-carboxamide], in assay [2], the activity at 1 µM was determined as 138% and the activity at 10 µM is 78%.
Take `Cc1ccccc1-n1cc(-c2nc(C(=O)N(C(C)C)[C@H]3CCNC3)cs2)cn1` [Compound 397, 2-[1-(2-methylphenyl)-1H-pyrazol-4-yl]-N-(propan-2-yl)-N-[(3S)-pyrrolidin-3-yl]-1,3-thiazole-4-carboxamide]: in assay [2], the activity at 1 µM was found to be 115% and the activity at 10 µM was 191%.
On the same counts, the results for `COc1ccccc1-n1cc(-c2nc(C(=O)N(C(C)C)[C@H]3CCNC3)cs2)cn1` [Compound 398, 2-[1-(2-methoxyphenyl)-1H-pyrazol-4-yl]-N-(propan-2-yl)-N-[(3S)-pyrrolidin-3-yl]-1,3-thiazole-4-carboxamide] are 116% and 190%.

The values above are taken from patent US20250049776A1, “AUTOPHAGY INDUCING COMPOUNDS AND USES THEREOF, IN PARTICULAR FOR A SYSTEMIC TREATMENT OF DISEASES AND CONDITIONS” (Samsara Therapeutics Inc., priority 2021, published 2025).
